PubChem BioAssay AID698 (NMMLSC, 2007)
Calls of active or inactive are those of the source. How the calls were made is not given here.

Target: N-formyl peptide receptor 2 (Homo sapiens) (UniProt P25090)
Assay: FPRL1 antagonists blocking calcium signaling, confirmation, cell-based, calcium response (AID 698)
Conditions: FPRL1-expressing cells, ligand-induced calcium response, antagonist mode; stronger effect = higher value; concentration not given here

N-formyl peptide receptor 2 (Homo sapiens), sequence (P25090 whole entry, looked up): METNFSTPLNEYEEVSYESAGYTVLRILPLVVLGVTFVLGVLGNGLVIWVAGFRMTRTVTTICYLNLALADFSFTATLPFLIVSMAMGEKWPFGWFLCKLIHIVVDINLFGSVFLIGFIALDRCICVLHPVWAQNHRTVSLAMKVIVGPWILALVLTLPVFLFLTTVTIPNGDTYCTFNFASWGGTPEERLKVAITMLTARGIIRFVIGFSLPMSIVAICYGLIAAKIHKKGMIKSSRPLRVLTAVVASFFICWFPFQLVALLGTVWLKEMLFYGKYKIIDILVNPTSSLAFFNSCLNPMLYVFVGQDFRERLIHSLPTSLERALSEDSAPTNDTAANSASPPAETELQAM

| inhibition | Structure (SMILES) |
| --- | --- |
| 0% (inactive) | CCOC(=O)CSc1nnc(CNC(=O)c2cc(OCC)c(OCC)c(OCC)c2)n1C |
| 93.4% | CC(=O)OCCNc1cc(N2CCN(C)CC2)c2noc3c2c1C(=O)c1ccccc1-3 |
| 96.3% | COc1ccc(-c2cc(C(F)(F)F)nc(N3CCN(Cc4ccccc4)CC3)n2)cc1OC |
| 0% (inactive) | CCOc1cc(C(=O)NCc2nnc(SCC(=O)OC)n2C)cc(OCC)c1OCC |

The remaining lines, values behind:

| Structure (SMILES) | inhibition |
| --- | --- |
| COc1ccc(-c2cn3cccnc3n2)cc1NC(=O)C1CC1 | 98.1% |
| Nc1ccc(Nc2ccccc2N)cc1 | 69.5% (inactive) |
| O=C(O)CCCNc1cc(N2CCC3(CC2)OCCO3)c2noc3c2c1C(=O)c1ccccc1-3 | 0% (inactive) |
